From patent US20230382863A1, “MEK INHIBITORS AND USES THEREOF” (Ikena Oncology, Inc., priority 2022, published 2023)

Assays:
BRAF in complex with MEK = test: BRAF-MEK stabilization in cells (MEK immunoprecipitation, Western); type: cell-based; conditions: 3 nM, 4 hours
Source text: (§1) The stabilization of ARAF, BRAF and CRAF in complex with MEK in MEK immunoprecipitates isolated from cellular lysates. For these studies, HCT-116 (colorectal cell line with KRAS G13D mutation), SKMEL-2 (melanoma cell line with NRAS Q61K mutation), HT-29 (colorectal cell line with BRAF Class I mutation), NCI-H1755 (lung cancer cell line with BRAF Class II mutation), and NCI-H1666 (lung cancer cell line with BRAF Class III mutation) models are used. The tumor cell lines are maintained in vitro as monolayer culture in medium at 37° C. in an atmosphere of 5% CO2 in air. Cell lines are treated with exemplary MEK inhibitors at a concentration of 3 nM for 4 hours. Cells are lysed and MEK is immunoprecipitated from the lysates overnight. Denatured immunoprecipitates are run on SDS-PAGE, transferred to nitrocellulose membranes and associated ARAF, BRAF, or CRAF are detected by Western analysis. Stabilization was defined as >1.5-fold induction of RAF-MEK interaction over vehicle control.

[1] = test system: 5637 xenograft (CRAF amplification); test: In vivo efficacy, 5637 xenograft model; design: species or system mouse; conditions: 5637 model, 3 mg/kg QD, Day 21
Experimental: (§2) The antitumor activity of exemplary MEK inhibitor compounds is evaluated in vivo using human cell line derived xenografts (CDX) grown in immunodeficient mice. For these studies, AsPC1 (pancreatic cell line with KRAS G12D mutation), NCI-H2122 (lung cell line with KRAS G12C mutation), and 5637 (bladder cell line with CRAF amplification) models are used. In addition, HCT-116 (colorectal cell line with KRAS G13D mutation), SKM-1 (AML cell line with KRAS K117N mutation), and OCI-AML-3 (AML cell line with NRAS Q61L mutation) models are used. The tumor cell lines (AsPC-1, NCI-H2122, 5637, and HCT-116 cells) are maintained in vitro as monolayer culture in medium at 37° C. in an atmosphere of 5% CO2 in air. The tumor cell lines (SKM-1 and OCI-AML-3 cells) are maintained in vitro as a suspension in medium at 37° C. in an atmosphere of 5% CO2 in air. The tumor cells are routinely sub-cultured before confluence by trypsin-EDTA treatment, not to exceed 4-5 passages. The cells growing in an exponential growth phase are harvested for tumor inoculation. AsPC1, NCI-H2122, and OCI-AML-3 tumors are implanted into Balb/c nude mice. HCT-116 tumors are implanted into Nu/Nu mice. 5637 and SKM-1 tumors are implanted into NOG mice. […] Throughout the study, mouse body weight and tumor volume are recorded. The measurement of tumor size is conducted twice weekly with a caliper and recorded. […]

[2] = test system: NCI-H2122 xenograft (KRAS G12C); test: In vivo efficacy, NCI-H2122 xenograft model; design: species or system mouse; conditions: 3 mg/kg QD, Day 31
Experimental: as §2

[3] = test system: OCI-AML-3 xenograft (NRAS Q61L); test: In vivo efficacy, OCI-AML-3 xenograft model; design: species or system mouse; conditions: OCI-AML-3 model, Day 15
Experimental: (§3) The antitumor activity of exemplary MEK inhibitor compounds is evaluated in vivo using human cell line derived xenografts (CDX) grown in immunodeficient mice. For these studies, AsPC1 (pancreatic cell line with KRAS G12D mutation), NCI-H2122 (lung cell line with KRAS G12C mutation), and 5637 (bladder cell line with CRAF amplification) models are used. In addition, HCT-116 (colorectal cell line with KRAS G13D mutation), SKM-1 (AML cell line with KRAS K117N mutation), and OCI-AML-3 (AML cell line with NRAS Q61L mutation) models are used. The tumor cell lines (AsPC-1, NCI-H2122, 5637, and HCT-116 cells) are maintained in vitro as monolayer culture in medium at 37° C. in an atmosphere of 5% CO2 in air. The tumor cell lines (SKM-1 and OCI-AML-3 cells) are maintained in vitro as a suspension in medium at 37° C. in an atmosphere of 5% CO2 in air. The tumor cells are routinely sub-cultured before confluence by trypsin-EDTA treatment, not to exceed 4-5 passages. The cells growing in an exponential growth phase are harvested for tumor inoculation. AsPC1, NCI-H2122, and OCI-AML-3 tumors are implanted into Balb/c nude mice. HCT-116 tumors are implanted into Nu/Nu mice. 5637 and SKM-1 tumors are implanted into NOG mice. Each mouse is inoculated subcutaneously on the right flank with tumor cells in a 1:1 mixture with matrigel. Tumors are allowed to grow to approximately 150-200 mm^3. At this time, mice are assigned to groups such that the mean tumor volume is the same for each treatment group. The MEK inhibitor compound treatments are administrated to the tumor-bearing mice via oral gavage. Throughout the study, mouse body weight and tumor volume are recorded. The measurement of tumor size is conducted twice weekly with a caliper and recorded. The tumor volume (mm^3) is estimated using the formula: TV=a×b^2/2, where “a” and “b” are long and short diameters of a tumor, respectively.

pERK HCT-116 (G13D) = pERK HCT-116 (G13D) ICW (4 hour); type: cell-based; conditions: Homo sapiens, read-out: pERK HCT-116 (G13D) ICW (4 hour): Average IC50 (nM)
Pharmacokinetics in rat = type: in vivo; conditions: plasma, IV, 1 mg/kg
CRAF in complex with MEK = test: CRAF-MEK stabilization in cells (MEK immunoprecipitation, Western); type: cell-based; conditions: HCT-116 and NCI-H1666 cells, 3 nM, 4 hours
Source text: as §1

[4] = test system: SKM-1 xenograft (KRAS K117N); test: In vivo efficacy, SKM-1 xenograft model; design: species or system mouse; conditions: SKM-1 model, Day 22
Experimental: as §3

[5] = test system: Phosphorylation of MEK1/2 in AsPC1 cells; test: 4 hour pMEK1/2 MSD Assay; type: cell-based; conditions: Homo sapiens; AsPC1, 4 hours; read-out: pMEK IC50
Experimental: AsPC1 cells were seeded at 10,000 cells/well overnight in 96-well plates, then treated with a 12-point dose response of compounds (Starting dose of 1000 nM and 3-fold dilution) for 4 hours. AsPC1 cells are a K-Ras mutant (G12D) pancreatic cancer cell line. Phosphorylation of MEK1/2 on residues Ser217 and Ser221 were detected using a MesoScale Discovery (MSD) assay (MSD Cat #K15129D-2). MEK1/2 phosphorylation levels were normalized to total MEK1/2 protein detected in each well on the same MSD plate. IC50 values were determined by fitting a variable slope, four parameters curve to the compound concentration to normalized Phospho-MEK1/2 relationship.

[6] = test system: AsPC1 xenograft (KRAS G12D); test: In vivo efficacy, AsPC-1 xenograft model; design: species or system mouse; conditions: AsPC-1 model, 3 mg/kg QD, Day 21
Experimental: as §2

CNS(=O)(=O)Nc1cccc(Oc2c(C(=O)NC3CC3)c(Nc3ccc(I)cc3F)n(C)c(=O)c2C)c1Cl [Compound I-2, 4-(2-chloro-3-((N-methylsulfamoyl)amino)phenoxy)-N-cyclopropyl-2-((2-fluoro-4-iodophenyl)amino)-1,5-dimethyl-6-oxo-1,6-dihydropyridine-3-carboxamide]
Wild-type BRAF-MEK association (BRAF in complex with MEK; HCT-116 and SKMEL-2 cells): augmented
mutant BRAF-MEK interaction (BRAF in complex with MEK; HT-29 (BRAF Class I), NCI-H1755 (BRAF Class II), NCI-H1666 (BRAF Class III)): enhanced
average body weight loss [1]: 6.8%
percent TGI [1]: 111%
average body weight loss [2]: 1.5%
percent TGI [2]: 104%
average body weight loss ([3]; 1 mg/kg QD): 2.9%
percent TGI ([3]; 1 mg/kg QD): 94.8%
average body weight loss ([3]; 3 mg/kg QD): 7.8%
percent TGI ([3]; 3 mg/kg QD): 98.6%
percent TGI ([3]; 6 mg/kg QOD): 95.2%
weight gain ([3]; 6 mg/kg QOD): 3.3%
IC50 (pERK HCT-116 (G13D)): < 100 nM
AUC(0-inf) (Pharmacokinetics in rat): 1080 ng·h/mL
AUC(0-t) (Pharmacokinetics in rat): 1070 ng·h/mL
clearance (Pharmacokinetics in rat): 16.6 mL/min/kg
half-life (Pharmacokinetics in rat): 4.22 h
Vd (Pharmacokinetics in rat; read-out: Vdss): 2.2 L/kg
MEK inhibitor-induced MEK-CRAF stabilization (CRAF in complex with MEK): stabilization was observed
percent TGI ([4]; 1 mg/kg QD): 97.7%
weight gain ([4]; 1 mg/kg QD): 1.2%
average body weight loss ([4]; 3 mg/kg QD): 1.2%
percent TGI ([4]; 6 mg/kg QOD): 96.2%
weight gain ([4]; 6 mg/kg QOD): 3.9%
IC50 [5]: < 0.1 µM
average body weight gain [6]: 2.4%
percent TGI (tumor growth inhibition) [6]: 83.4%
